Read-outs that look alike come from different tables or passages of the source.
Molecular target: T1, human GluN1/GluN2B NMDA receptors (Homo sapiens, UniProt Q13224)
T1 construct: expressed in transfected cells
Test: Cell-based calcium flux (FLIPR) assay on cloned human NR1/NR2B ion channels expressed in mammalian cells (standard and HTS buffer variants);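 also: stable Tet-On inducible cell line, Ca2+ influx triggered by glutamate at about EC40 plus 10 µM glycine, fluorescent dye read-out over 5 min, normalized to control wells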

[1] = standard assay buffer (0.5 mM MgCl2 dye loading; 137 mM NaCl, 4 mM KCl assay buffer), human GluN1/GluN2B cells, read-out: NR2B IC50 (μM) standard assay
[2] = standard assay buffer (0.5 mM MgCl2 in dye loading buffer; 137 mM NaCl, 4 mM KCl in assay buffer), human GluN1/GluN2B, read-out: NR2B IC50 (μM) standard assay

T1 sequence (Q13224 27-1484, other chains not shown): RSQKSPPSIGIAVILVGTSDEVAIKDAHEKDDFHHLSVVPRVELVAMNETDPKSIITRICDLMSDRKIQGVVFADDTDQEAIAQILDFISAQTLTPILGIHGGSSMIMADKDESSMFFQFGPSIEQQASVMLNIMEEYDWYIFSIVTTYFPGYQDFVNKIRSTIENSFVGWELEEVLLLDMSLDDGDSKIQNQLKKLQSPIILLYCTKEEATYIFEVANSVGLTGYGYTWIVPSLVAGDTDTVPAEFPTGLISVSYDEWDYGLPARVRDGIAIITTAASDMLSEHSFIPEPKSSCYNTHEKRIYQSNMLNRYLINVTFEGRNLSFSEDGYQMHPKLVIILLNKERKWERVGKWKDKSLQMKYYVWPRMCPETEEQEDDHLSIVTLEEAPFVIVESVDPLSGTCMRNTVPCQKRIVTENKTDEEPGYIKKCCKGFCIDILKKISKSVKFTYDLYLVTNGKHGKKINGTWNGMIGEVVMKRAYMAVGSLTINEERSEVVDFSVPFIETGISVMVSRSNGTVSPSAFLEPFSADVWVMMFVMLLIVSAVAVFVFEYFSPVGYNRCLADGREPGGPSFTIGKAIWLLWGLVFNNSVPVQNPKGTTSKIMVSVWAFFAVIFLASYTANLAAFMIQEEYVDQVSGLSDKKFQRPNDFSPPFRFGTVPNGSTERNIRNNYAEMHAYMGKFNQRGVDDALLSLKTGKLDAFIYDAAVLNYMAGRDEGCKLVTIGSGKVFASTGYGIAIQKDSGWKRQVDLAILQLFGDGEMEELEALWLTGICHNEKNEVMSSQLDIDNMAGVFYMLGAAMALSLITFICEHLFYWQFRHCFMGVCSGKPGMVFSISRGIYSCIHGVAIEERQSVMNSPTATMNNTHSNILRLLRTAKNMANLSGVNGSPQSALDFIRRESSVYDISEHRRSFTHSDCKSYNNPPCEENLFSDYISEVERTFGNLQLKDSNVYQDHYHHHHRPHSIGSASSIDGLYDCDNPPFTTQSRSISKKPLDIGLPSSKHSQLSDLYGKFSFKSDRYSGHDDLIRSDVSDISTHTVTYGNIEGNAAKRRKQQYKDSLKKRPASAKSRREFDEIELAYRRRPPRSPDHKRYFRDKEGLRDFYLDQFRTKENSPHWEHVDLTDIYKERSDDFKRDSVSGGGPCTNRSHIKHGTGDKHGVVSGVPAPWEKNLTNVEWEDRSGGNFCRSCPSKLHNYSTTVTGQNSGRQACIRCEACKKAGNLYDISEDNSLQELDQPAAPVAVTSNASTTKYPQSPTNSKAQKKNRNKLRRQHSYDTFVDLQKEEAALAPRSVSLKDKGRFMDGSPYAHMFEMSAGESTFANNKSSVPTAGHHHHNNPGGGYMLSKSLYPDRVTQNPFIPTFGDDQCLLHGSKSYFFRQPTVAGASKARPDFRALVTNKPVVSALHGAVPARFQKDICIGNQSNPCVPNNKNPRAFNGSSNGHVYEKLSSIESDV

Row | SMILES | IC50 [1] [µM] | IC50 [2] [µM] | also measured
1 | Cc1ncc(-c2cnc3c(c2)n(CC(=O)N(C)C)c(=O)n3C)s1 [Example 114, N,N-Dimethyl-2-[3-methyl-6-(2-methylthiazol-5-yl)-2-oxo-imidazo[4,5-b]pyridin-1-yl]acetamide] | 11.7 | – | –
2 | Cn1c(=O)n(Cc2cccnc2)c2cc(-c3cccc(C(F)F)c3)cnc21 [Example 363, 6-[3-(Difluoromethyl)phenyl]-3-methyl-1-(3-pyridylmethyl)imidazo[4,5-b]pyridin-2-one] | – | 0.053 | –
3 | Cc1c(F)ccc(-c2cnc3c(c2)n(CC(=O)N2CCC2)c(=O)n3C)c1F [Example 409, 1-[2-(Azetidin-1-yl)-2-oxo-ethyl]-6-(2,4-difluoro-3-methyl-phenyl)-3-methyl-imidazo[4,5-b]pyridin-2-one] | – | 0.008 | –
4 | Cn1c(=O)n(CC(=O)N2CCC2)c2cc(-c3ccc(Cl)c(OC(F)F)c3)cnc21 [Example 592, 1-[2-(Azetidin-1-yl)-2-oxo-ethyl]-6-[4-chloro-3-(difluoromethoxy)phenyl]-3-methyl-imidazo[4,5-b]pyridin-2-one] | – | 0.071 | –
5 | Cn1c(=O)n(Cc2ccncc2)c2cc(-c3cccc(F)c3)cnc21 [Example 52, 6-(3-Fluorophenyl)-3-methyl-1-(4-pyridylmethyl)imidazo[4,5-1D]pyridin-2-one] | 3.33 | – | –
6 | Cn1c(=O)n(CC(=O)N2CCC2)c2cc(-c3ccc(C(F)F)s3)cnc21 [Example 93, 1-[2-(Azetidin-1-yl)-2-oxo-ethyl]-6-[5-(difluoromethyl)-2-thienyl]-3-methyl-imidazo[4,5-b]pyridin-2-one] | 0.006 | – | –
7 | O=c1[nH]c2ncc(-c3cccc(C(F)(F)F)c3)cc2n1C(F)(F)c1cccnc1 [Example 237, 1-[Difluoro(3-pyridyl)methyl]-6-[3-(trifluoromethyl)phenyl]-3H-imidazo[4,5-b]pyridin-2-one] | > 10 | – | –
8 | CN(C)C(=O)Cn1c(=O)n(C)c2ncc(-c3ccc(Cl)c(OC(F)F)c3)cc21 [Example 591, 2-[6-[4-Chloro-3-(difluoromethoxy)phenyl]-3-methyl-2-oxo-imidazo[4,5-b]pyridin-1-yl]-N,N-dimethyl-acetamide] | – | 0.034 | –
9 | Cn1c(=O)n(Cc2cncc(Cl)c2)c2cc(-c3cccc(C(F)(F)F)c3)cnc21 [Example 366, 1-[(5-Chloro-3-pyridyl)methyl]-3-methyl-6-[3-(trifluoromethyl)phenyl]imidazo[4,5-b]pyridin-2-one] | – | 0.433 | –
10 | Cn1c(=O)n(CC(=O)N2CC(F)(F)C2)c2cc(-c3cccc(C(F)(F)F)c3F)cnc21 [Example 415, 1-[2-(3,3-Difluoroazetidin-1-yl)-2-oxo-ethyl]-6-[2-fluoro-3-(trifluoromethyl)phenyl]-3-methyl-imidazo[4,5-b]pyridin-2-one] | – | 0.015 | –
11 | Cc1c(F)ccc(-c2cnc3c(c2)n(Cc2cnccn2)c(=O)n3C)c1F [Example 139, 6-(2,4-Difluoro-3-methyl-phenyl)-3-methyl-1-(pyrazin-2-ylmethyl)imidazo[4,5-b]pyridin-2-one] | 0.084 | – | –
12 | Cc1ncc(-c2cnc3c(c2)n(CC(=O)N2CCC2)c(=O)n3C)s1 [Example 112, 1-[2-(Azetidin-1-yl)-2-oxo-ethyl]-3-methyl-6-(2-methylthiazol-5-yl)imidazo[4,5-b]pyridin-2-one] | 5.1 | – | –
13 | COCCNC(=O)Cn1c(=O)[nH]c2ncc(-c3cccc(C(F)(F)F)c3)cc21 [Example 442, N-(2-Methoxyethyl)-2-[2-oxo-6-[3-(trifluoromethyl)phenyl]-3H-imidazo[4,5-b]pyridin-1-yl]acetamide] | – | – | IC50 (HTS assay buffer (1.5 mM MgCl2 in dye loading buffer; 150 mM NaCl, 3 mM KCl in assay buffer), human GluN1/GluN2B, read-out: NR2B IC50 (μM) HTS assay): 0.197 µM
14 | Cc1cccc(-c2cnc3c(c2)n(CC(=O)N(C)C)c(=O)n3C)c1 [Example 583, N,N-Dimethyl-2-[3-methyl-6-(m-tolyl)-2-oxo-imidazo[4,5-b]pyridin-1-yl]acetamide] | – | 0.051 | –
15 | Cn1c(=O)n(Cc2cccnn2)c2cc(-c3ccc(F)s3)cnc21 [Example 85, 6-(5-Fluoro-2-thienyl)-3-methyl-1-(pyridazin-3-ylmethyl)imidazo[4,5-b]pyridin-2-one] | 0.157 | – | –

More lines, main results first:

Row | IC50 [1] [µM] | IC50 [2] [µM] | SMILES | also measured
16 | – | 0.133 | Cc1cc(Cn2c(=O)[nH]c3ncc(-c4cc(F)cc(F)c4)cc32)no1 [Example 523, 6-(3,5-Difluorophenyl)-1-[(5-methylisoxazol-3-yl)methyl]-3H-imidazo[4,5-b]pyridin-2-one] | –
17 | 0.017 | – | Cc1c(F)ccc(-c2cnc3[nH]c(=O)n(Cc4cccnc4)c3c2)c1F [Example 293, 6-(2,4-Difluoro-3-methyl-phenyl)-1-(3-pyridylmethyl)-3H-imidazo[4,5-b]pyridin-2-one] | –
18 | – | > 10 | Cc1cccnc1Cn1c(=O)[nH]c2ncc(-c3cc(F)cc(F)c3)cc21 [Example 318, 6-(3,5-Difluorophenyl)-1-[(3-methyl-2-pyridyl)methyl]-3H-imidazo[4,5-b]pyridin-2-one] | –
19 | – | 0.163 | O=C(Cn1c(=O)[nH]c2ncc(-c3cccc(C(F)(F)F)c3)cc21)N1CC(CCF)C1 [Example 536, 1-[2-[3-(2-Fluoroethyl)azetidin-1-yl]-2-oxo-ethyl]-6-[3-(trifluoromethyl)phenyl]-3H-imidazo[4,5-b]pyridin-2-one] | –
20 | – | 0.026 | Cc1cccc(-c2cnc3[nH]c(=O)n(CC(=O)N4CC(F)(F)C4)c3c2)c1 [Example 580, 1-[2-(3,3-Difluoroazetidin-1-yl)-2-oxo-ethyl]-6-(m-tolyl)-3H-imidazo[4,5-b]pyridin-2-one] | –
21 | 8.71 | – | Cc1cc(Cn2c(=O)[nH]c3ncc(-c4cccc(C(F)(F)F)c4)cc32)ccc1F [Example 221, 1-[(4-Fluoro-3-methyl-phenyl)methyl]-6-[3-(trifluoromethyl)phenyl]-3H-imidazo[4,5-b]pyridin-2-one] | –
22 | 0.029 | – | O=c1[nH]c2ncc(-c3cccc(Cl)c3)cc2n1Cc1cccnc1 [Example 296, 6-(3-Chlorophenyl)-1-(3-pyridylmethyl)-3H-imidazo[4,5-b]pyridin-2-one] | –
23 | 0.587 | – | CN1CCN(C(=O)Cn2c(=O)[nH]c3ncc(-c4cccc(C(F)(F)F)c4)cc32)CC1 [Example 193, 1-[2-(4-Methylpiperazin-1-yl)-2-oxo-ethyl]-6-[3-(trifluoromethyl)phenyl]-3H-imidazo[4,5-b]pyridin-2-one] | –
24 | 2 | – | Cn1c(=O)n(Cc2ccccn2)c2cc(-c3ccc(F)c(F)c3)cnc21 [Example 62, 6-(3,4-difluorophenyl)-3-methyl-1-(2-pyridylmethyl)imidazo[4,5-b]pyridin-2-one] | –
25 | > 10 | – | O=C(Cn1c(=O)[nH]c2ncc(-c3cccc(C(F)(F)F)c3)cc21)c1cccs1 [Example 214, 1-[2-Oxo-2-(2-thienyl)ethyl]-6-[3-(trifluoromethyl)phenyl]-3H-imidazo[4,5-b]pyridin-2-one] | –
26 | 0.278 | – | Cc1cc(-c2cnc3c(c2)n(Cc2ccncn2)c(=O)n3C)ccc1F [Example 71, 6-(4-Fluoro-3-methyl-phenyl)-3-methyl-1-(pyrimidin-4-ylmethyl)imidazo[4,5-b]pyridin-2-one] | –
27 | – | 0.019 | COc1cc(F)ccc1-c1cnc2[nH]c(=O)n(Cc3cc(C)on3)c2c1 [Example 520, 6-(4-Fluoro-2-methoxy-phenyl)-1-[(5-methylisoxazol-3-yl)methyl]-3H-imidazo[4,5-b]pyridin-2-one] | –
28 | 0.194 | – | O=c1[nH]c2ncc(-c3cccc(C(F)(F)F)c3)cc2n1Cc1ccncc1 [Example 229, 1-(4-Pyridylmethyl)-6-[3-(trifluoromethyl)phenyl]-3H-imidazo[4,5-b]pyridin-2-one] | –
